Patent US20250235545A1, “POLYPEPTIDE CONJUGATE AND USE THEREOF” (SHANGHAI CHIXI BIOMEDICAL TECHNOLOGY CO., LTD, priority 2024, published 2025)
≈ marks a conversion by molar mass, not a printed value. Read-outs that look alike come from different tables or passages of the source.

How the values were obtained:
[1] = tested on: colo320 (colorectal cancer tissue); experiment: cells; assay type: cell-based; conditions: CCK8, 48 h, Table 6
Protocol: (§1) Different types of cells were cultured with complete media (RPMI1640 (DMEM high sugar medium)+10% fetal bovine serum+1×P/S+sodium pyruvate 1 mM solution) in an incubator at 37° C. and 5% CO2 until the cells grew to a sufficient number, and the cells were collected, centrifuged at 1,000 g for 5 min, resuspended with an appropriate volume of a 10% RMPI1640 (DMEM high sugar medium) medium and adjusted to an appropriate density. In a 96-well culture plate, 100 μL of cell culture fluid containing different concentrations of drugs was added, control wells (0.1% DMSO) with only corresponding drug solvents without drugs, as well as blank wells (Blank) with only the medium but without cells were set, and three parallel wells were set in each group. After that, the cells after cell counting were inoculated onto 96-well culture plates, with 100 μL of cell suspension per well, and an inoculation concentration of the cells was 5,000 cells (100 μL)/well. The plates were then cultured in a CO2 (5%) incubator at 37° C. for 48 h. After 48 h, 10 μL of a cell proliferation staining reagent (CCK8) was added to each well, the plates were incubated in a cell incubator for around 2 h, and an absorbance at 450 nm was detected.
(§2) Cell survival rates and median inhibitory concentrations (IC50) of the drugs on the cells were calculated.

[2] = tested on: sarcoma SJSA-1 tumor model; conditions: 5 mg/kg once a week for three weeks
Protocol: Test objective: To investigate the antitumor efficacy of the above compounds in an animal tumor model of sarcoma SJSA-1.
(§3) Test drug: Polypeptide conjugate, Irinotecan, Belotecan and normal saline control group.
(§4) Test animals: 6-8 weeks old BALB/c mice, all female.
(§5) SJSA-1 cells were purchased from ATCC and cultured in a DMEM medium containing 10% fetal bovine serum at 37° C. in 5% CO2. Passaging was performed every three days, and cells within 15 generations were used. 2×10^7 corresponding cells were injected into right chests of nude mice subcutaneously. After a volume of the tumors reached at least 100 mm^3, the mice were grouped randomly, with three mice in each group. Then treatment was started, and the day when the treatment was started was the first day. […] The control group was administered with normal saline. Administration was performed once a week for three weeks.
as §5

[3] = tested on: colo320 colorectal cancer tumor model
Protocol: Test objective: To investigate the antitumor efficacy of the above compounds in an animal tumor model of colo320 colorectal cancer.
as §3, §4
Passaging was performed every three days, and cells within 15 generations were used. 7.5×10^6 corresponding cells were injected into right chests of nude mice subcutaneously. After a volume of the tumors reached at least 120 mm^3, the mice were grouped randomly, with three mice in each group. Then treatment was started, and the day when the treatment was started was the first day. […] The control group was administered with normal saline. Administration was performed once a week for four weeks.

[4] = tested on: A2780 (ovarian cancer); experiment: cells; assay type: cell-based; conditions: CCK8, 48 h; for IC50: Homo sapiens, A2780
Protocol: as §1, with “serum+1XP/S+sodium” for “serum+1×P/S+sodium”, “counted.” for “adjusted to an appropriate density.”
(§6) Cell survival rates and median inhibitory concentrations of the drugs on the cells were calculated.
as §1, §2

[5] = tested on: SKBR3 (breast cancer tissue); experiment: cells; assay type: cell-based; conditions: CCK8, 48 h; for IC50: Homo sapiens, SK-BR-3
Protocol: as §1, with “serum+1XP/S+sodium” for “serum+1×P/S+sodium”, “counted.” for “adjusted to an appropriate density.”
as §6, §1, §2

[6] = tested on: SJSA-1 (sarcoma tissue); experiment: cells; assay type: cell-based; conditions: CCK8, 48 h; for IC50: Homo sapiens, SJSA-1
Protocol: as §1, with “serum+1XP/S+sodium” for “serum+1×P/S+sodium”, “counted.” for “adjusted to an appropriate density.”
as §6, §1, §2

[7] = tested on: A549 (non-small cell lung cancer); experiment: cells; assay type: cell-based; conditions: CCK8, 48 h; for IC50: Homo sapiens, A549
Protocol: as §1, with “serum+1XP/S+sodium” for “serum+1×P/S+sodium”, “counted.” for “adjusted to an appropriate density.”
as §6, §1, §2

[8] = MTD determination in mice (Examples 27, 36, 44); assay type: in vivo; conditions: mice, monitored for 14 d
Source text: Test animals: 6-8 weeks old mice, all female; mice were grouped randomly, with six mice in each group, administered with drugs at different concentration gradients separately and monitored for 14 d. A mouse was euthanized at a loss of 20% of its initial weight and deemed to have died of poisoning.

[9] = 5 mg/kg once a week for four weeks, Table 3
[10] = 5 mg/kg once a week for four weeks, Table 8
[11] = Table 13 (Example 42), dose 5 mg/kg, once a week for four weeks, BALB/c mice
[12] = Table 14 (Example 43), dose 5 mg/kg, once a week for four weeks, BALB/c mice

| SMILES | Mouse weight (%) ([2]; Table 2) | SJSA-1 (sarcoma tissue) mean tumor volume (mm^3) ([2]; Table 2) | SJSA-1 (sarcoma) Growth rate (%) ([2]; Table 2) | Mouse weight (%) ([2]; Table 7) | SJSA-1 (sarcoma tissue) growth rate (%) ([2]; Table 7) | SJSA-1 (sarcoma tissue) mean tumor volume (mm^3) ([2]; Table 7) | Mouse weight (%) [3, 9] | colo320 (colorectal cancer cell) growth rate (%) [3, 9] [%] | colo320 (colorectal cancer cell) mean tumor volume (mm^3) [3, 9] [mm^3] | Mouse weight (%) [3, 10] | colo320 (colorectal cancer cell) growth rate (%) [3, 10] [%] | colo320 (colorectal cancer cell) mean tumor volume (mm^3) [3, 10] [mm^3] | IC50 Colorectal cancer tissue (colo320) [1] [µg/mL] | IC50 A2780 (ovarian cancer) ([4]; Table 1) [µg/mL] | IC50 Ovarian cancer tissue (A2780) ([4]; Table 6) [µg/mL] | IC50 SKBR3 (breast cancer tissue) ([5]; Table 1) [µg/mL] | IC50 Breast cancer tissue (SKBR3) ([5]; Table 6) [µg/mL] | IC50 SJSA-1 (sarcoma tissue) ([6]; Table 1) [µg/mL] | IC50 Sarcoma tissue (SJSA-1) ([6]; Table 6) [µg/mL] | IC50 A549 (non-small cell lung cancer) ([7]; Table 1) [µg/mL] | other results |
| --- | --- | --- | --- | --- | --- | --- | --- | --- | --- | --- | --- | --- | --- | --- | --- | --- | --- | --- | --- | --- | --- |
| CC[C@@]1(O)C(=O)OCc2c1cc1n(c2=O)Cc2c-1nc1ccccc1c2CCNC(C)C [Belotecan, reference compound] | −9 | 1253.2 | 1084.38 | −9 | 1084.38 | 1253.2 | −9% | 869.93 | 963.5 | −9% | 869.93 | 963.5 |  |  |  |  |  |  |  |  | IC50 ([1]; Homo sapiens, COLO 320): 0.014 µg/mL (≈ 0.0323 µM); Mouse weight (%) [3, 11]: −9%; colo320 (colorectal cancer cell) growth rate (%) [3, 11]: 869.93%; colo320 (colorectal cancer cell) mean tumor volume (mm^3) [3, 11]: 963.5 mm^3; Mouse weight (%) [3, 12]: −9%; colo320 (colorectal cancer cell) growth rate (%) [3, 12]: 869.93%; colo320 (colorectal cancer cell) mean tumor volume (mm^3) [3, 12]: 963.5 mm^3; IC50 ([4]; Table 1, read-out: IC50 A2780 (ovarian cancer)): 0.0044 µg/mL (≈ 0.0101 µM); IC50 ([4]; Table 6, read-out: IC50 Ovarian cancer tissue (A2780)): 0.0044 µg/mL (≈ 0.0101 µM); IC50 ([5]; Table 1, read-out: IC50 SKBR3 (breast cancer tissue)): 0.0098 µg/mL (≈ 0.0226 µM); IC50 ([5]; Table 6, read-out: IC50 Breast cancer tissue (SKBR3)): 0.0098 µg/mL (≈ 0.0226 µM); IC50 ([6]; Table 1, read-out: IC50 SJSA-1 (sarcoma tissue)): 0.0021 µg/mL (≈ 0.00484 µM); IC50 ([6]; Table 6, read-out: IC50 Sarcoma tissue (SJSA-1)): 0.0021 µg/mL (≈ 0.00484 µM); IC50 ([7]; Table 1, read-out: IC50 A549 (non-small cell lung cancer)): 0.0066 µg/mL (≈ 0.0152 µM); IC50 ([7]; Table 6, read-out: IC50 Non-small cell lung cancer tissue (A549)): 0.0066 µg/mL (≈ 0.0152 µM); MTD ([8]; female, mouse, in vivo, Table 15 (Example 44), six per group, read-out: MTD): 15 mg/kg; MTD ([8]; female, mouse, in vivo, Table 4, read-out: MTD): 15 mg/kg; MTD ([8]; female, mouse, in vivo, Table 9, read-out: MTD): 15 mg/kg |
| CCCCNCCc1c2c(nc3ccccc13)-c1cc3c(c(=O)n1C2)COC(=O)[C@]3(O)CC [D4] | −7 | 1269.4 | 1098.39 | −7 | 1098.39 | 1269.4 | +5% | 945.77 | 1047.5 | +5% | 945.77 | 1047.5 | 0.078 (≈ 0.174 µM) | 0.029 (≈ 0.0648 µM) | 0.029 (≈ 0.0648 µM) | 0.076 (≈ 0.17 µM) | 0.076 (≈ 0.17 µM) | 0.054 (≈ 0.121 µM) | 0.054 (≈ 0.121 µM) | 0.043 (≈ 0.0961 µM) | IC50 Non-small cell lung cancer tissue (A549) ([7]; Table 6): 0.043 µg/mL (≈ 0.0961 µM); MTD ([8]; Table 4): 30 mg/kg; MTD ([8]; Table 9): 30 mg/kg |
| CCCNCCc1c2c(nc3ccccc13)-c1cc3c(c(=O)n1C2)COC(=O)[C@]3(O)CC [D3] | −5 | 1378.4 | 1192.71 | −5 | 1192.71 | 1378.4 | +7% | 872.19 | 966 | +7% | 872.19 | 966 | 0.040 (≈ 0.0923 µM) | 0.021 (≈ 0.0484 µM) | 0.021 (≈ 0.0484 µM) | 0.049 (≈ 0.113 µM) | 0.049 (≈ 0.113 µM) | 0.029 (≈ 0.0669 µM) | 0.029 (≈ 0.0669 µM) | 0.026 (≈ 0.06 µM) | IC50 Non-small cell lung cancer tissue (A549) ([7]; Table 6): 0.026 µg/mL (≈ 0.06 µM); MTD ([8]; Table 4): 25 mg/kg; MTD ([8]; Table 9): 25 mg/kg |
| CC[C@@]1(O)C(=O)OCc2c1cc1n(c2=O)Cc2c-1nc1ccccc1c2CCNCC(C)C [D5] | −5 | 1443.2 | 1248.78 | −5 | 1248.78 | 1443.2 | +8% | 991.91 | 1098.6 | +8% | 991.91 | 1098.6 | 0.029 (≈ 0.0648 µM) | 0.014 (≈ 0.0313 µM) | 0.014 (≈ 0.0313 µM) | 0.013 (≈ 0.029 µM) | 0.013 (≈ 0.029 µM) | 0.012 (≈ 0.0268 µM) | 0.012 (≈ 0.0268 µM) | 0.019 (≈ 0.0425 µM) | IC50 Non-small cell lung cancer tissue (A549) ([7]; Table 6): 0.019 µg/mL (≈ 0.0425 µM); MTD ([8]; Table 4): 30 mg/kg; MTD ([8]; Table 9): 30 mg/kg |
